Some test systems named below: MCF7; UO-31; T47D; 786-0; SK-MEL-2; HOP-62; HL-60; OVCAR-8; A498; TK-10; M14; Malme-3M; SW-620; A549; EKVX; SNB-75; COLO 205; CCRF-CEM; MDA-N; HCC 2998.
Holding throughout (test): inhibition of tumour cell growth, NCI panel, 48 h

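These data come from cells grown in 96-well plates and exposed to compound for 48 hours at five concentrations. Abbreviation: GI50, concentration required for 50% inhibition of growth.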 The source made the active and inactive calls. Cut-off read from the data, not from the text of the source: active = GI50 up to about 1.1 µM and inactive = higher. Some results are limits rather than exact numbers.

For the compound `COc1ccc(SCc2cc(OC)ccc2OC)cc1`, the GI50 in the assay on MCF7 is 15.1 µM (inactive); in the assay on UO-31 it was 27.6 µM (inactive); in the assay on T47D, 25.5 µM (inactive); in the assay on 786-0, > 85.5 µM (inactive); in the assay with SK-MEL-2, 8.59 µM (inactive); in the assay with HOP-62, 59.8 µM (inactive). The GI50 in the assay on HL-60 was 6.01 µM (inactive); in the assay on OVCAR-8, 96.4 µM (inactive); in the assay with A498 it was 18.7 µM (inactive); in the assay on TK-10, > 93.3 µM (inactive); in the assay with M14 it was 57.5 µM (inactive); in the assay with Malme-3M, 55.6 µM (inactive). In addition, the GI50 with SW-620 was 10.6 µM (inactive); in the assay on A549 it was 22.4 µM (inactive); in the assay with EKVX it was > 56.1 µM (inactive); with SNB-75, 11.1 µM (inactive); in the assay with COLO 205, 15.6 µM (inactive); in the assay with CCRF-CEM it was 17.5 µM (inactive). Besides, the GI50 in the assay with MDA-N is 3.33 µM (inactive); with HCC 2998 it was 9.77 µM (inactive).

As for `O=C(/C=C/c1ccsc1)c1ccsc1`, the GI50 was 13.8 µM (inactive) in the assay with MCF7; 15.4 µM (inactive) in the assay with UO-31; 28.2 µM (inactive) in the assay with T47D; 21.4 µM (inactive) with 786-0; > 100 µM (inactive) with SK-MEL-2; > 100 µM (inactive) in the assay on HOP-62. Moreover, the GI50 with HL-60 is 17 µM (inactive); in the assay on OVCAR-8 it was 26.6 µM (inactive); with A498, 37.5 µM (inactive); in the assay with TK-10 it was 23.8 µM (inactive); in the assay on M14 it was 33.7 µM (inactive); in the assay on Malme-3M, 26.4 µM (inactive). In addition, the GI50 is 24.8 µM (inactive) with SW-620; 38.2 µM (inactive) with A549; 70.5 µM (inactive) in the assay on EKVX; 37 µM (inactive) in the assay with SNB-75; 22.4 µM (inactive) in the assay on COLO 205; 19.1 µM (inactive) in the assay with CCRF-CEM. Further, the GI50 in the assay on MDA-N is 23.2 µM (inactive); with HCC 2998, 19.5 µM (inactive).

Regarding `COc1ccc(C(=O)/C=C/c2ccc3c(c2)OCO3)c(OCc2ccccc2)c1`, the GI50 with MCF7 was 6.22 µM (inactive); with UO-31, 37.2 µM (inactive); in the assay on T47D it was > 43.5 µM (inactive); in the assay with 786-0 it was > 67.8 µM (inactive); with SK-MEL-2 it was > 57.1 µM (inactive); in the assay on HOP-62, > 100 µM (inactive). Further, the GI50 with HL-60 is 2.01 µM (inactive); in the assay with OVCAR-8 it was 7.67 µM (inactive); in the assay on A498, > 84.9 µM (inactive); in the assay on TK-10, > 90.8 µM (inactive); in the assay on M14 it was > 65.5 µM (inactive); in the assay on Malme-3M it was > 100 µM (inactive). In addition, the GI50 in the assay on SW-620 is 8.71 µM (inactive); in the assay on A549, 47.3 µM (inactive); with EKVX it was 29.8 µM (inactive); with SNB-75, > 55.1 µM (inactive); in the assay on COLO 205 it was > 75.5 µM (inactive); in the assay on CCRF-CEM, 4.3 µM (inactive). The figures for the GI50 with MDA-N and in the assay on HCC 2998 were 11.7 µM (inactive) and 8.28 µM (inactive), respectively.

With `COc1ccc(/C=C/c2cnnc3ccccc23)cc1OC`, the GI50 with MCF7 is > 10 µM (inactive); with UO-31, 0.0374 µM (active); in the assay with T47D, > 10 µM (inactive); in the assay with 786-0, > 10 µM (inactive); in the assay with SK-MEL-2, > 10 µM (inactive); with HOP-62, > 10 µM (inactive). The GI50 in the assay on HL-60, in the assay on OVCAR-8, with A498, in the assay on TK-10, with M14 and with Malme-3M was > 10 µM (inactive) each time. The GI50 was > 10 µM (inactive) in the assay with SW-620; > 10 µM (inactive) in the assay on A549; > 10 µM (inactive) in the assay with EKVX; 5.46 µM (inactive) in the assay with SNB-75; > 10 µM (inactive) with COLO 205; > 10 µM (inactive) with CCRF-CEM. The GI50 in the assay with MDA-N and in the assay with HCC 2998 was > 10 µM (inactive) each time.

Turning to `CSc1cc(Cl)c(C(=O)Nc2ccccc2)cc1S(=O)(=O)n1ccnc1O`, the GI50 in the assay with MCF7, with UO-31, with T47D, in the assay with 786-0, with SK-MEL-2 and in the assay on HOP-62 was > 100 µM (inactive) throughout. For the same compound, the GI50 in the assay on HL-60, in the assay with OVCAR-8, with A498, with TK-10, with M14 and in the assay with Malme-3M was > 100 µM (inactive) in each case. For the same compound, the GI50 with SW-620, in the assay with A549, in the assay with EKVX, with SNB-75, in the assay with COLO 205 and in the assay with CCRF-CEM was > 100 µM (inactive) each time. Moreover, the GI50 in the assay on MDA-N and with HCC 2998 was > 100 µM (inactive) throughout.

Turning to `CC1(C)[C@@H]2CC[C@@]1(C)C1(S[S+]1[O-])C21Cc2ccccc2C1` (stereo not given in full), the GI50 in the assay on MCF7 was 22.1 µM (inactive); in the assay with UO-31, 21.4 µM (inactive); with T47D, 21.6 µM (inactive); in the assay on 786-0 it was 16.4 µM (inactive); in the assay on SK-MEL-2, 17.2 µM (inactive); in the assay with HOP-62 it was 81.1 µM (inactive). Further, the GI50 in the assay with HL-60 is 18.1 µM (inactive); with OVCAR-8, 17.3 µM (inactive); with A498, 28.7 µM (inactive); in the assay on TK-10, 18.8 µM (inactive); with M14, 33.4 µM (inactive); in the assay with Malme-3M, 38.8 µM (inactive). Also, the GI50 is 14.7 µM (inactive) in the assay on SW-620; 36.8 µM (inactive) in the assay on A549; 23.8 µM (inactive) in the assay on EKVX; 31 µM (inactive) in the assay on SNB-75; 30.6 µM (inactive) with COLO 205; 5.25 µM (inactive) in the assay with CCRF-CEM. The results for the GI50 in the assay on MDA-N and with HCC 2998 were 17.1 µM (inactive) and 18.5 µM (inactive), respectively.

On to `Nc1cccc(-c2cc(O)c3cc4c(cc3n2)OCO4)c1`, for which the GI50 in the assay on MCF7 is 0.592 µM (active); in the assay on UO-31, 12.5 µM (inactive); with T47D it was > 100 µM (inactive); in the assay with 786-0, 2.16 µM (inactive); with SK-MEL-2 it was 0.45 µM (active); with HOP-62 it was 1.87 µM (inactive). In addition, the GI50 in the assay with HL-60 was 1.93 µM (inactive); in the assay on OVCAR-8, 2.11 µM (inactive); in the assay on A498, 2.45 µM (inactive); in the assay with TK-10 it was 6.64 µM (inactive); in the assay with M14, 0.993 µM (active); in the assay on Malme-3M, 0.318 µM (active). The GI50 is 0.519 µM (active) with SW-620; 4.09 µM (inactive) in the assay with A549; 3.27 µM (inactive) with EKVX; 0.0995 µM (active) in the assay on SNB-75; 0.384 µM (active) with COLO 205; 0.665 µM (active) in the assay on CCRF-CEM. The GI50 with MDA-N is 0.216 µM (active); with HCC 2998, 1.83 µM (inactive).
